Measurements reported in the SangsterLogP compilation.

Test: method code SF-TN, from DOI: 10.1021/jm00251a007, PMID: 4151492

Structure (SMILES)	logP
CC(C)NCC(O)COc1ccc(OCC(O)CNC(C)C)cc1 (stereo unspecified)	0.67
CC(C)NCC(O)COc1cccc(OCC(O)CNC(C)C)c1 (stereo unspecified)	0.73
CC(C)NCC(O)COc1cccc2c(OCC(O)CNC(C)C)cccc12 (stereo unspecified)	0.98
CC(C)NCC(O)COc1ccccc1-c1ccccc1OCC(O)CNC(C)C (stereo unspecified)	0.97
CC(C)NCC(O)COc1ccccc1 (stereo unspecified)	1.76
CC(C)NCC(O)COc1ccc2c(OCC(O)CNC(C)C)cccc2c1 (stereo unspecified)	0.87
CC(C)NCC(O)COc1ccc(OCC(O)CNC(C)C)c2ccccc12 (stereo unspecified)	0.93

Results, then the molecule that gave them:

logP	Structure (SMILES)
1.37	CC(C)NCC(O)COc1cccc2cccc(OCC(O)CNC(C)C)c12 (stereo unspecified)
1.07	CC(C)NCC(O)COc1ccc2ccccc2c1OCC(O)CNC(C)C (stereo unspecified)
0.99	CC(C)NCC(O)COc1cc(OCC(O)CNC(C)C)c2ccccc2c1 (stereo unspecified)
0.63	CC(C)NCC(O)COc1ccccc1OCC(O)CNC(C)C (stereo unspecified)
